This is an account of results in US20240009190A1, “COMBINATION CANCER THERAPY USING CHK INHIBITOR” (SHANGHAI HUAYU BIOTECHNOLOGY CO., LTD., priority 2020, published 2024).

In series [1] the test system is CT-26 WT cells. Nature of the series: CT-26 WT subcutaneous tumor model, Compound 6 with anti-m-PD-1 antibody (Example 1). It is filed as in vivo, BALB/c female mice. As to conditions: Day 27; Compound 6 35 mg/kg tail vein once per day; anti-m-PD-1 10 mg/kg IP once every five days, four times. The method, then: CT-26 WT cells were maintained at 37° C. in 5% CO2 in RPMI 1640 medium (10-040-CV, Corning cellgro) supplemented with 10% FBS (10270-106, GIBCO) and used before the 10th subculture.
At Day 0, 45 BALB/c female mice, 4-5 weeks old, were subcutaneously injected with about 200.0 μL of the CT-26 WT cell medium containing about 5×10^5 cells, respectively.
At Day 5, 32 tumor-bearing mice were randomly assigned to four groups according to their body weights, 8 mice per group. The remaining mice were subject to euthanasia. […]
(§1) Mice were observed every day for their physical conditions and activities, and mice body weight and tumor volume were measured every Tuesday, Thursday and Sunday. The tumor volume (V) was calculated as (length×width^2)/2.
(§2) At Day 27, mice were subject to euthanasia, from which tumors were collected, weighed and photographed. Mice body weights, tumor sizes and tumor weights were analyzed using the t-test in SPSS, and group differences were deemed statistically significant when the p-value was 0.05 or less.
Tumor growth inhibition (TGI) was calculated by the following two formulae. […]
Further, Zheng-Jun Jin's Q value was calculated using the formula Q=EA+B/(EA+EB−EA×EB) to assess the combined effect of the anti-PD-1 antibody and Compound 6, wherein EA+B, EA, and EB referred to the TGIs of the combination therapy, anti-PD-1 administration and Compound 6 administration, respectively. […]

A short description of series [2]: Mice body weight and survival in CT-26 WT tumor model (Example 1). In kind it is in vivo, BALB/c female mice. As to conditions: Day 27; Compound 6 35 mg/kg, anti-m-PD-1 10 mg/kg. The method, then:
as §1, §2

Series [3] relates to CT-26 WT cells. Description: CT-26 WT subcutaneous tumor model, CHK inhibitors at lower dose with anti-m-PD-1 antibody (Example 2). In kind it is in vivo, BALB/c female mice. Particulars: for Average tumor size: compounds 15 mg/kg tail vein once per day, anti-m-PD-1 10 mg/kg IP once every five days. The method, then:
The anti-tumor effect of Compound 6 at a lower dose in combination with an anti-PD-1 antibody was studied in this Example. Further, three compounds obtained by structurally modifying Compound 6, i.e., Compound 6-1, Compound 6-2 and Compound 6-3, were tested alone or in combination with an anti-PD-1 antibody for their anti-tumor effects.
At Day 0, 105 BALB/c female mice, 4-5 weeks old, were subcutaneously injected with about 200.0 μL of the CT-26 WT cell medium containing about 5×10^5 cells, respectively.
At Day 5, 80 tumor-bearing mice were randomly assigned to ten groups according to their body weights, 8 mice per group. The remaining mice were subject to euthanasia.
The ten groups of animals were administered with an anti-m-PD-1 antibody (BE0146, BioXcell) in PBS (21-040-CVR, BioXcell) at 1.0 mg/mL, Compound 6 in saline at 1.5 mg/mL, Compound 6-1 in saline at 1.5 mg/mL, Compound 6-2 in saline at 1.5 mg/mL, Compound 6-3 in saline at 1.5 mg/mL, the anti-m-PD-1 antibody+Compound 6, the anti-m-PD-1 antibody+Compound 6-1, the anti-m-PD-1 antibody+Compound 6-2, the anti-m-PD-1 antibody+Compound 6-3, and the control vehicle (saline), respectively, at doses shown in Table 3 below.
as §1
(§3) At Day 23, mice were subject to euthanasia, from which tumors were collected, weighed and photographed. Mice body weights, tumor sizes and tumor weights were analyzed using the t-test in SPSS, and group differences were deemed statistically significant when the p-value was 0.05 or less. Tumor weight based tumor growth inhibition (TGI) and Zheng-Jun Jin's Q value were calculated.

The subject of series [4] is MC38 cells. Nature of the series: MC38 tumor model in transgenic mice, Compound 6, anti-PD-1 antibody and gemcitabine (Example 5). It is filed as in vivo, C57BL/6-Pdcd1^em(hPDCD1) Cd274^em1(hPD-L1)/Smoc mice. Particulars: Day 23; Compound 6 15 mg/kg IP QD × 14; GEM 20 mg/kg IV QW × 2; anti-PD-1 10 mg/kg IP Q5D × 3. How it is done:
MC38 cells were maintained at 37° C. in 5% CO2 in RPMI 1640 medium (10-040-CV, Corning cellgro) supplemented with 10% FBS (10270-106, GIBCO) and used before the 10th subculture.
Female C57BL/6-Pdcd1^em(hPDCD1) Cd274^em1(hPD-L1)/Smoc mice (Shanghai Model Organisms), 20-25 g, were subcutaneously injected with about 5×10^5 MC38 cells, respectively.
When tumors grew to 50-70 mm^3, these mice were randomly assigned to 8 groups, 8 mice per group, this day was at Day 9. From Day 9, the animals were administered with gemcitabine (GEM) in saline at 20 mg/mL, an anti-PD-1 antibody (Toripalimab, Shanghai Junshi Biosciences Co., Ltd. China) in saline at 40 mg/mL, Compound 6 in saline at 8 mg/mL, Compound 6+gemcitabine, gemcitabine+anti-PD-1, Compound 6+anti-PD-1, Compound 6+gemcitabine+anti-PD-1, and the control vehicle (5% GS), respectively, according to the dosing regimen shown in Table 11 below.
Mice were observed every day for their physical conditions and activities, and mice body weight and tumor volume were measured every other day. The tumor volume (V) was calculated as (length×width^2)/2.
Mice body weights, and tumor sizes were analyzed using the t-test in SPSS, and group differences were deemed statistically significant when the p-value was 0.05 or less.
Tumor growth inhibition (TGI) was calculated by the following formula. Tumor growth inhibition=(average tumor size in vehicle group-average tumor size in administration group)/average tumor size in vehicle group×100%
Zheng-Jun Jin's Q value was calculated as described above.

The nature of series [5]: Mice body weight in CT-26 WT tumor model (Example 2). It is filed as in vivo, BALB/c female mice. Particulars: for Average body weight: compounds 15 mg/kg tail vein once per day, anti-m-PD-1 10 mg/kg IP once every five days. How it is done:
as §1, §3

For series [6], the system named is MC38 cells. Nature of the series: MC38 tumor model in mPD-1-/- mPD-L1-/- hPD-1+/+ hPD-L1+/+ transgenic mice (Example 3). It is filed as in vivo, C57BL/6-Pdcd1^em1(hPDCD1) Cd274^em1(hPD-L1)/Smoc mice. The method, then: MC38 cells were maintained at 37° C. in 5% CO2 in RPMI 1640 medium (10-040-CV, Corning cellgro) supplemented with 10% FBS (10270-106, GIBCO, Thermo Fisher Scientific), 100 U/ml penicillin and 100 U/ml streptomycin in 10-cm Petri dishes.
Female C57BL/6-Pdcd1^em1(hPDCD1) Cd274^em1(hPD-L1)/Smoc mice, 20-25 g (Shanghai Model Organisms), were subcutaneously injected with about 3×10^5 MC38 cells, respectively.
When tumors grew to 50-70 mm^3, these mice were randomly assigned to four groups, 8 mice per group, this day was designated as Day 0. From Day 0, the animals were administered with an anti-PD-1 antibody (Toripalimab, Shanghai Junshi Biosciences Co., Ltd. China) in saline at 40.0 mg/mL, an hIgG4 (Novoprotein, NovoPro Bioscience Inc.) in saline at 3.3 mg/mL, Compound 6 in saline at 8 mg/mL in combination with the anti-PD-1 antibody, and Compound 6 in combination with hIgG4, respectively, according to the dosing regimen shown in Table 8 above.
Mice were observed every day for their physical conditions and activities, and mice body weight and tumor volume were measured twice a week. The tumor volume (V) was calculated as (length×width^2)/2.
Mice in Group 1 and Group 2 were subjected to euthanasia at Day 14, and those from Group 3 and Group 4 on Day 21, from which tumors were collected and photographed. Mice body weights and tumor sizes were analyzed using the t-test in SPSS, and group differences were deemed statistically significant when the p-value was 0.05 or less. TGI and Zheng-Jun Jin's Q value were calculated.

In series [7] the test system is MC38 cells. Nature of the series: MC38 tumor model in transgenic mice, lower dose of anti-PD-1 antibody (Example 4). It is filed as in vivo, C57BL/6-Pdcd1^em1(hPDCD1) Cd274^em1(hPD-L1)/Smoc mice. Particulars: Compound 6 8 mg/kg IP QD × 14; anti-PD-1 or hIgG4 2.5 mg/kg IP BIW × 3. The method, then: The test of Example 3 was repeated in the same transgenic mouse model using a lower dose of anti-PD-1 antibody, i.e., 2.5 mg/kg anti-PD-1, with some other minor modifications.
In particular, female C57BL/6-Pdcd1^em1(hPDCD1) Cd274^em1(hPD-L1)/Smoc mice (Shanghai Model Organisms), 5-7 weeks old, were subcutaneously injected with about 3×10^5 MC38 cells, respectively.
When tumors grew to 50-100 mm^3, these mice were randomly assigned to four groups, 8 mice per group, this day was designated as Day 0. From Day 0, the animals were administered with an anti-PD-1 antibody (Toripalimab, Shanghai Junshi Biosciences Co., Ltd. China) in 5% GS (5% glucose solution) at 40 mg/mL, an hIgG4 (Novoprotein, NovoPro Bioscience Inc.) in 5% GS at 3.3 mg/mL, Compound 6 in 5% GS at 8 mg/mL in combination with the anti-PD-1 antibody, and Compound 6 in combination with hIgG4, respectively, according to the dosing regimen shown in Table 10 below.

The conditions of series [8]: patients receiving various doses; pooled analysis of 14 phase I-III studies; cited from earlier work.
Where [9] appears, read: Day 23, compounds 15 mg/kg, anti-m-PD-1 10 mg/kg.

Turning to `NC(=O)c1nnc(N[C@H]2CCCNC2)c2cc(-c3cccc(F)c3)sc12` [Compound 6, 2-(3-fluorophenyl)-4-(3-piperidineamino)-thieno[2,3-d]pyridazine-7-carboxylic acid amide], the “TGI - tumor size” value in the series on CT-26 WT cells [1] is given as 72.74%. Moreover, in the series with CT-26 WT cells [1], the “TGI - tumor weight” value is on record as 77.53%. Moreover, the “average mice weight, tumor weight deducted” value in series [2] amounted to 18.41 g; in series [5] (setting [9]) it was 17.63 g. Besides, the Average tumor size came to 163.24 mm^3 in the series with CT-26 WT cells [3] (Day 9); 220.45 mm^3 with CT-26 WT cells [3] (Day 10); 367.43 mm^3 with CT-26 WT cells [3] (Day 12); 494.61 mm^3 in the series on CT-26 WT cells [3] (Day 14); 666.40 mm^3 with CT-26 WT cells [3] (Day 16); 770.93 mm^3 in the series with CT-26 WT cells [3] (Day 18). Also, the Average tumor size is on record as 955.40 mm^3 in the series on CT-26 WT cells [3] (Day 20), 1094.31 mm^3 in the series with CT-26 WT cells [3] (Day 22) and 1071.65 mm^3 in the series on CT-26 WT cells [3] (Day 23). In the series with CT-26 WT cells [3] (setting [9]), the “Tumor weight based TGI” value is listed as 52.30%. Also, the “Tumor weight, Average” value with CT-26 WT cells [3] (Day 23, group average of 8 mice) is given as 1.35 g. Moreover, the “Tumor weight, Mouse no. 1” value in the series on CT-26 WT cells [3] (Day 23, individual mouse) came out at 0.95 g. For the same molecule, the “Tumor weight, Mouse no. 2” value in the series with CT-26 WT cells [3] (Day 23, individual mouse) amounted to 0.28 g. The “Tumor weight, Mouse no. 3” value in the series on CT-26 WT cells [3] (Day 23, individual mouse) is 0.59 g. The “Tumor weight, Mouse no. 4” value in the series on CT-26 WT cells [3] (Day 23, individual mouse) is recorded as 2.43 g. The “Tumor weight, Mouse no. 5” value in the series on CT-26 WT cells [3] (Day 23, individual mouse) was determined as 2.97 g. In the series with CT-26 WT cells [3] (Day 23, individual mouse), the “Tumor weight, Mouse no. 6” value is on record as 0.97 g. For the same molecule, the “Tumor weight, Mouse no. 7” value with CT-26 WT cells [3] (Day 23, individual mouse) amounted to 2.04 g. Besides, in the series with CT-26 WT cells [3] (Day 23, individual mouse), the “Tumor weight, Mouse no. 8” value was 0.57 g. In the series on MC38 cells [4], the “TGI based on tumor sizes” value is given as 52.53%. Besides, the Average body weight is on record as 16.39 g in series [5] (Day 9); 16.85 g in series [5] (Day 10); 16.87 g in series [5] (Day 12); 17.03 g in series [5] (Day 14); 17.88 g in series [5] (Day 16); 17.89 g in series [5] (Day 18). The values for the Average body weight in series [5] (Day 20), in series [5] (Day 22) and in series [5] (Day 23) were 18.25 g, 18.37 g and 18.98 g, respectively.
For the molecule Toripalimab [anti-PD-1], the Average tumor size with MC38 cells [6] (Day 0 (day of grouping, start of dosing)) is given as 59.1 ± 0.4 mm^3; in the series on MC38 cells [6] (Day 14, Compound 6 8 mg/kg IP QD Day 0-13, anti-PD-1 or hIgG4 3 mg/kg IP Q2D), 792.1 ± 207.1 mm^3. The “TGI (%) on D14” value in the series on MC38 cells [6] (Day 14, Compound 6 8 mg/kg IP QD, anti-PD-1 or hIgG4 3 mg/kg IP Q2D) was determined as 58%. Also, the TGI in the series on MC38 cells [7] was found to be 46.95%. Further, the “TGI based on tumor sizes” value with MC38 cells [4] was determined as 17.05%.
ipilimumab: in series [8], the “patients who experienced immune-related adverse effects” value is 64%.

What is called TGI is how far tumour growth fell short of that in controls.
